Results published in patent US9737504B2, “Dihydroorotic and acid dehydrogenase inhibitor” (NAI INC., priority 2012, dated 2017).
Where two headings read alike, the source gives them in different places.

Columns and labels:
Type in all cases: cell-based
NCI-H522 = assay: JFCR39 cancer cell growth inhibition test, NCI-H522; details: Homo sapiens; NCI-H522, Lu (Lung)
OVCAR-3 = assay: JFCR39 cancer cell growth inhibition test, OVCAR-3; details: Homo sapiens; OVCAR-3, Ov (Ovarian)
MKN74 = assay: JFCR39 cancer cell growth inhibition test, MKN74; details: Homo sapiens, MKN-74; MKN74, St (Stomac)
BSY-1 = assay: JFCR39 cancer cell growth inhibition test, BSY-1; details: Homo sapiens; BSY-1, Br (Breast)
[1] = test system: HDF cells (human dermal fibroblast cells); assay: Inhibitory effect on HDF cells, control vs hypoxic and subnutritional conditions; details: for IC50: Homo sapiens, HDF normal skin cells
Description: For these reasons, cells of colorectal and pancreatic cancers, each being regarded as intractable, were used to test the inhibitory effect of compounds under hypoxic and subnutritional conditions. Moreover, the same test was also performed on normal skin cells.
The cells used were two types of cancer cells, i.e., DLD-1 cells (human colorectal cancer cells) and Panc-1 cells (human pancreatic cells), as well as HDF cells (human dermal fibroblast cells).

A549 = assay: JFCR39 cancer cell growth inhibition test, A549; details: Homo sapiens; A549, Lu (Lung)
MDA-MB-231 = assay: JFCR39 cancer cell growth inhibition test, MDA-MB-231; details: Homo sapiens; MDA-MB-231, Br (Breast)
OVCAR-4 = assay: JFCR39 cancer cell growth inhibition test, OVCAR-4; details: Homo sapiens; OVCAR-4, Ov (Ovarian)
HBC-4 = assay: JFCR39 cancer cell growth inhibition test, HBC-4; details: Homo sapiens, HBC4; HBC-4, Br (Breast)

`C/C(=C\Cc1c(O)c(Cl)c(C)c(C=O)c1O)CC/C=C(\C)[C@@H]1CC(=O)C(C)(C)O1` (racemic) [Ascofuranone, dl-5-Chloro-2,4-dihydroxy-6-methyl-3-[(2E,6E)-3-methyl-7-(3,3-dimethyl-4-oxo-2-oxacyclopentyl)-2,6-octadienyl]benzaldehyde] was tested, and the GI50 (NCI-H522) was 8.4 µM, the GI50 (OVCAR-3) was 8 µM and the GI50 (MKN74) was 13 µM. The GI50 (BSY-1) was 16 µM, the “Selectivity = 21% glc(+)gln(+) IC50/1% glc(−)gln(−) IC50” value ([1]; HDF) was greater than 63 and the IC50 ([1]; read-out: IC50 [μM] 1% O2 glc(−)gln(−), 1% O2 glc(−)gln(−)) was 1.6 µM. For the same compound, the IC50 ([1]; 21% O2 glc(+)gln(+), read-out: IC50 [μM] 21% O2 glc(+)gln(+)) was greater than 100 µM, the GI50 (A549) was 7.6 µM and the GI50 (MDA-MB-231) was 7.4 µM. For the same compound, the GI50 (OVCAR-4) was 5.9 µM and the GI50 (HBC-4) was 9.1 µM.
